From US11407737B2, “Inhibitors of RAF kinases” (Kinnate Biopharma Inc., priority 2020, dated 2022)

Target: human RAF1 (Homo sapiens (Human), UniProt P04049)
Test: Protein kinase assay (radiometric 33P-ATP, MEK1 (K97R) substrate), RAF-1
Type: biochemical
Settings: human MEK1 (K97R) substrate 3 micromolar, ATP 10 micromolar; 10-dose, 3-fold serial dilution starting at 10 micromolar; read-out: RAF-1 IC50
Procedure, shortened: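 Radiometric filter-binding assay with RAF1 and MEK1 (K97R) substrate at 3 micromolar and 10 micromolar final ATP, in HEPES pH 7.5 buffer with 1% DMSO. Reactions ran 2 hr at room temperature with [γ-33P]ATP. IC50 was derived from remaining activity relative to DMSO control.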

human RAF1, sequence (P04049 whole entry): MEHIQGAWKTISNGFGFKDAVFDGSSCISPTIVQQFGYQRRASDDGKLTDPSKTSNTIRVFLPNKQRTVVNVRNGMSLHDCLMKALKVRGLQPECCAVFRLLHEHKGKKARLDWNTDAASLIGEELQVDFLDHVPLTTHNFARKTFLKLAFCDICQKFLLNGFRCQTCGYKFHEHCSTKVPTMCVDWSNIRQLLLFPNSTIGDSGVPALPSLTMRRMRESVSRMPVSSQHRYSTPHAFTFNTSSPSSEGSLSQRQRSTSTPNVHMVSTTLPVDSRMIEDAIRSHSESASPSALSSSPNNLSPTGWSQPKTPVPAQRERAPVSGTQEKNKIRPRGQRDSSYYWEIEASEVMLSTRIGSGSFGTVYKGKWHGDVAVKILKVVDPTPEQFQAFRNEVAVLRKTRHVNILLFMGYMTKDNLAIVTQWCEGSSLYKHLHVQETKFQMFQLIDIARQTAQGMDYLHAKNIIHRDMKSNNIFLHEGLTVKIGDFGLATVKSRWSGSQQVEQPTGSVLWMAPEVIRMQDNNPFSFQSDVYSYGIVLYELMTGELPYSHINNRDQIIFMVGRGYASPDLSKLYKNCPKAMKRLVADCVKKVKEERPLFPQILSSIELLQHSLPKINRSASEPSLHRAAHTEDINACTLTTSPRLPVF

IC50 [nM]	Compound
< 1	Cc1cc(F)c(NC(=O)N2CC[C@@H](C(F)(F)F)C2)cc1-c1cc(-c2cnn(C)c2)nc(N2CCOCC2)c1 [Example 75, (3R)—N-{2-fluoro-4-methyl-5-[2-(1-methylpyrazol-4-yl)-6-(morpholin-4-yl)pyridin-4-yl]phenyl}-3-(trifluoromethyl)pyrrolidine-1-carboxamide]
< 1	Cc1cc(F)c(NC(=O)N2CC[C@H](C(F)(F)F)C2)cc1-c1cc(-c2cnn(C)c2)nc(N2CCOCC2)c1 [Example 76, (3S)—N-{2-fluoro-4-methyl-5-[2-(1-methylpyrazol-4-yl)-6-(morpholin-4-yl)pyridin-4-yl]phenyl}-3-(trifluoromethyl)pyrrolidine-1-carboxamide]
< 1	Cc1cc(F)c(NC(=O)N2CC=C(CC(F)(F)F)C2)cc1-c1cc(-c2cnn(C)c2)nc(N2CCOCC2)c1 [Example 77, N-{2-fluoro-4-methyl-5-[2-(1-methylpyrazol-4-yl)-6-(morpholin-4-yl)pyridin-4-yl]phenyl}-3-(2,2,2-trifluoroethyl)-2,5-dihydropyrrole-1-carboxamide]
1 to 10	Cc1cc(F)c(NC(=O)N2CC[C@H](C(C)(C)C)C2)cc1-c1cc(-c2cnn(C)c2)nc(N2CCOCC2)c1 [Example 83, (3R)-3-tert-butyl-N-{2-fluoro-4-methyl-5-[2-(1-methylpyrazol-4-yl)-6-(morpholin-4-yl)pyridin-4-yl]phenyl}pyrrolidine-1-carboxamide]

Second part, the compound before the results:

Compound	IC50 [nM]
Cc1cc(F)c(NC(=O)N2CC[C@@H](CC(F)(F)F)C2)cc1-c1cc(-c2cnn(C)c2)nc(N2CCOCC2)c1 [Example 74, (3S)—N-{2-fluoro-4-methyl-5-[2-(1-methylpyrazol-4-yl)-6-(morpholin-4-yl)pyridin-4-yl]phenyl}-3-(2,2,2-trifluoroethyl)pyrrolidine-1-carboxamide]	< 1
CCn1cc(-c2cc(-c3cc(NC(=O)N4CC[C@@H](CC(F)(F)F)C4)ccc3C)cc(N3CCOCC3)n2)cn1 [Example 78, (3S)—N-{3-[2-(1-ethylpyrazol-4-yl)-6-(morpholin-4-yl)pyridin-4-yl]-4-methylphenyl}-3-(2,2,2-trifluoroethyl)pyrrolidine-1-carboxamide]	< 1
Cc1cc(F)c(NC(=O)N2CC=C(C(F)(F)C(F)(F)F)C2)cc1-c1cc(-c2cnn(C)c2)nc(N2CCOCC2)c1 [Example 79, N-{2-fluoro-4-methyl-5-[2-(1-methylpyrazol-4-yl)-6-(morpholin-4-yl)pyridin-4-yl]phenyl}-3-(1,1,2,2,2-pentafluoroethyl)-2,5-dihydropyrrole-1-carboxamide]	1 to 10
Cc1cc(F)c(NC(=O)N2CCC(C(C)(C)F)C2)cc1-c1cc(-c2cnn(C)c2)nc(N2CCOCC2)c1 (centres unmarked) [Example 85, N-{2-fluoro-4-methyl-5-[2-(1-methylpyrazol-4-yl)-6-(morpholin-4-yl)pyridin-4-yl]phenyl}-3-(2-fluoropropan-2-yl)pyrrolidine-1-carboxamide]	1 to 10
